Test results: PubChem BioAssay AID1963975 (Molecular Pharmacology Branch, DTP, NCI, 2024)

Test system: 624824-186-R-J2-PDC multicell spheroids, viability
Test: Anticancer human tumor 624824-186-R-J2-PDC patient-derived colon adenocarcinoma cell line growth inhibition [PI3K]
Details: for IC50: curve of first compound; for viability, T/C: stronger effect = lower value
Summary of the method: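 Three cell types, namely tumor cells, endothelial cells and mesenchymal stem cells, formed each spheroid. Combinations with four PI3K inhibitors were screened at clinically achievable concentrations decreasing by half-log, and spheroid viability was recorded.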

[1] = second compound 0.0316 µM, first compound 0.0316 µM
[2] = second compound 0.0316 µM, first compound 0.1 µM
[3] = second compound 0.0316 µM, first compound 0.316 µM
[4] = second compound 0.0316 µM, first compound 1 µM
[5] = second compound 0.0316 µM, first compound 3.16 µM
[6] = second compound 0.0316 µM, first compound 10 µM
[7] = second compound 0.1 µM, first compound 0.0316 µM
[8] = second compound 0.1 µM, first compound 0.1 µM
[9] = second compound 0.1 µM, first compound 0.316 µM
[10] = second compound 0.1 µM, first compound 1 µM
[11] = second compound 0.1 µM, first compound 3.16 µM
[12] = second compound 0.1 µM, first compound 10 µM
[13] = second compound 0.316 µM, first compound 0.0316 µM
[14] = second compound 0.316 µM, first compound 0.1 µM
[15] = second compound 0.316 µM, first compound 0.316 µM
[16] = second compound 0.316 µM, first compound 1 µM
[17] = second compound 0.316 µM, first compound 3.16 µM
[18] = second compound 0.316 µM, first compound 10 µM
[19] = second compound 1 µM, first compound 0.0316 µM
[20] = second compound 1 µM, first compound 0.1 µM
[21] = second compound 1 µM, first compound 0.316 µM
[22] = second compound 1 µM, first compound 1 µM
[23] = second compound 1 µM, first compound 3.16 µM
[24] = second compound 1 µM, first compound 10 µM
[25] = second compound 3.16 µM, first compound 0.0316 µM
[26] = second compound 3.16 µM, first compound 0.1 µM
[27] = second compound 3.16 µM, first compound 0.316 µM
[28] = second compound 3.16 µM, first compound 1 µM
[29] = second compound 3.16 µM, first compound 3.16 µM
[30] = second compound 3.16 µM, first compound 10 µM
[31] = second compound 10 µM, first compound 0.0316 µM
[32] = second compound 10 µM, first compound 0.1 µM
[33] = second compound 10 µM, first compound 0.316 µM
[34] = second compound 10 µM, first compound 1 µM
[35] = second compound 10 µM, first compound 3.16 µM
[36] = second compound 10 µM, first compound 10 µM
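Also: spheroids exposed to agents for 7 days before viability read.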
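For viability, T/C in this document: 100% = DMSO vehicle treated spheroids.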

Compound: CC1(C)CCC(CN2CCN(c3ccc(C(=O)NS(=O)(=O)c4ccc(NCC5CCOCC5)c([N+](=O)[O-])c4)c(Oc4cnc5[nH]ccc5c4)c3)CC2)=C(c2ccc(Cl)cc2)C1 + CC(Nc1ncnc2nc[nH]c12)c1cc2cccc(Cl)c2c(=O)n1-c1ccccc1
- IC50 (second compound 0.0316 µM): > 10 µM
- IC50 (second compound 0.1 µM): > 10 µM
- IC50 (second compound 0.316 µM): > 10 µM
- IC50 (second compound 1 µM): > 10 µM
- IC50 (second compound 3.16 µM): > 10 µM
- IC50 (second compound 10 µM): > 10 µM
- viability, T/C [1]: 89.4%
- viability, T/C [2]: 98.6%
- viability, T/C [3]: 77.3%
- viability, T/C [4]: 81.7%
- viability, T/C [5]: 71.6%
- viability, T/C [6]: 58.4%
- viability, T/C [7]: 103%
- viability, T/C [8]: 90.7%
- viability, T/C [9]: 91.1%
- viability, T/C [10]: 67.6%
- viability, T/C [11]: 67.2%
- viability, T/C [12]: 58.2%
- viability, T/C [13]: 88.3%
- viability, T/C [14]: 90.7%
- viability, T/C [15]: 68.4%
- viability, T/C [16]: 79.2%
- viability, T/C [17]: 63.1%
- viability, T/C [18]: 79%
- viability, T/C [19]: 86.3%
- viability, T/C [20]: 92.3%
- viability, T/C [21]: 80.2%
- viability, T/C [22]: 66.5%
- viability, T/C [23]: 77%
- viability, T/C [24]: 80.4%
- viability, T/C [25]: 88.5%
- viability, T/C [26]: 106%
- viability, T/C [27]: 73%
- viability, T/C [28]: 78.9%
- viability, T/C [29]: 86%
- viability, T/C [30]: 106%
- viability, T/C [31]: 103%
- viability, T/C [32]: 102%
- viability, T/C [33]: 108%
- viability, T/C [34]: 82.2%
- viability, T/C [35]: 92.2%
- viability, T/C [36]: 87%

Compound: CCCS(=O)(=O)Nc1ccc(F)c(C(=O)c2c[nH]c3ncc(-c4ccc(Cl)cc4)cc23)c1F + CC(Nc1ncnc2nc[nH]c12)c1cc2cccc(Cl)c2c(=O)n1-c1ccccc1
- IC50 (second compound 0.0316 µM): > 10 µM
- IC50 (second compound 0.1 µM): 8.61 µM
- IC50 (second compound 0.316 µM): > 10 µM
- IC50 (second compound 1 µM): 9.47 µM
- IC50 (second compound 3.16 µM): > 10 µM
- IC50 (second compound 10 µM): 6.82 µM
- viability, T/C [1]: 90.2%
- viability, T/C [2]: 74.8%
- viability, T/C [3]: 92.9%
- viability, T/C [4]: 84%
- viability, T/C [5]: 133%
- viability, T/C [6]: 66.6%
- viability, T/C [7]: 108%
- viability, T/C [8]: 80.1%
- viability, T/C [9]: 90%
- viability, T/C [10]: 74.8%
- viability, T/C [11]: 128%
- viability, T/C [12]: 43%
- viability, T/C [13]: 113%
- viability, T/C [14]: 85.1%
- viability, T/C [15]: 72.8%
- viability, T/C [16]: 111%
- viability, T/C [17]: 130%
- viability, T/C [18]: 65.5%
- viability, T/C [19]: 83.5%
- viability, T/C [20]: 65.2%
- viability, T/C [21]: 81%
- viability, T/C [22]: 103%
- viability, T/C [23]: 125%
- viability, T/C [24]: 47.8%
- viability, T/C [25]: 110%
- viability, T/C [26]: 88.1%
- viability, T/C [27]: 70.1%
- viability, T/C [28]: 77.3%
- viability, T/C [29]: 109%
- viability, T/C [30]: 52.9%
- viability, T/C [31]: 112%
- viability, T/C [32]: 95%
- viability, T/C [33]: 80.3%
- viability, T/C [34]: 79.9%
- viability, T/C [35]: 83.4%
- viability, T/C [36]: 35.2%

Compound: C[C@@H](NC(=O)c1ncnc(N)c1Cl)c1ncc(C(=O)Nc2cc(C(F)(F)F)c(Cl)cn2)s1 + CC(Nc1ncnc2nc[nH]c12)c1cc2cccc(Cl)c2c(=O)n1-c1ccccc1
- IC50 (second compound 0.0316 µM): > 10 µM
- IC50 (second compound 0.1 µM): > 10 µM
- IC50 (second compound 0.316 µM): > 10 µM
- IC50 (second compound 1 µM): > 10 µM
- IC50 (second compound 3.16 µM): > 10 µM
- IC50 (second compound 10 µM): > 10 µM
- viability, T/C [1]: 94%
- viability, T/C [2]: 106%
- viability, T/C [3]: 78.6%
- viability, T/C [4]: 69.9%
- viability, T/C [5]: 55.4%
- viability, T/C [6]: 67.2%
- viability, T/C [7]: 85.3%
- viability, T/C [8]: 82.3%
- viability, T/C [9]: 81.1%
- viability, T/C [10]: 67.7%
- viability, T/C [11]: 57%
- viability, T/C [12]: 56%
- viability, T/C [13]: 100%
- viability, T/C [14]: 99.3%
- viability, T/C [15]: 89.8%
- viability, T/C [16]: 65.4%
- viability, T/C [17]: 55.9%
- viability, T/C [18]: 58%
- viability, T/C [19]: 110%
- viability, T/C [20]: 85.6%
- viability, T/C [21]: 87.3%
- viability, T/C [22]: 63.1%
- viability, T/C [23]: 55%
- viability, T/C [24]: 54.1%
- viability, T/C [25]: 94.5%
- viability, T/C [26]: 93.9%
- viability, T/C [27]: 65.4%
- viability, T/C [28]: 65.6%
- viability, T/C [29]: 54.7%
- viability, T/C [30]: 59.6%
- viability, T/C [31]: 95.9%
- viability, T/C [32]: 92%
- viability, T/C [33]: 99.9%
- viability, T/C [34]: 77.2%
- viability, T/C [35]: 65.7%
- viability, T/C [36]: 57.8%
